Results: ChEMBL document CHEMBL1159313, “Structure and stereochemistry of new cytotoxic clerodane diterpenoids from the bark of Casearia lucida from the Madagascar rainforest” (J Nat Prod, 2002)
In brackets after ≈: the same amount, converted by molar mass.

Assays:
Assay type in all cases: functional, cell-based
A2780 = assay: Cytotoxicity against human A2780 cells after 48 hrs by microplate assay; settings: A2780, 48 h
[1] = Cytotoxicity against human drug-resistant A2780DDP cells after 48 hrs by microplate assay
ABAE = assay: Cytotoxicity against ABAE cells after 48 hrs by microplate assay; settings: Bos taurus
HT-29 = assay: Cytotoxicity against human HT-29 cells after 48 hrs by microplate assay; settings: HT-29, 48 h
[2] = Cytotoxicity against human drug-sensitive […] cells after 48 hrs by microplate assay
K562 = assay: Cytotoxicity against human K562 cells after 48 hrs by microplate assay; settings: K562, 48 h
HCT-116 = assay: Cytotoxicity against human HCT116 cells after 48 hrs by microplate assay; settings: HCT-116, 48 h
SK-BR-3 = assay: Cytotoxicity against human SKBR3 cells after 48 hrs by microplate assay; settings: SK-BR-3, 48 h
PC-3 = assay: Cytotoxicity against human PC3 cells after 48 hrs by microplate assay; settings: PC-3, 48 h
LX-1 = assay: Cytotoxicity against human LX1 cells after 48 hrs by microplate assay; settings: LX-1, 48 h

C=CC(=C)CC[C@]1(C)[C@H]2C[C@H](OC(=O)C(C)CC)C=C3[C@H](OC(C)=O)O[C@H](OC(C)=O)[C@@]32[C@H](O)C[C@@H]1C (relative stereo)
IC50 (A2780): 2.9 µg/mL (≈ 5.59 µM) | IC50 [1]: 2.1 µg/mL (≈ 4.05 µM) | IC50 (ABAE): 0.8 µg/mL (≈ 1.54 µM) | IC50 (HT-29): 1 µg/mL (≈ 1.93 µM) | IC50 [2]: 1.2 µg/mL (≈ 2.31 µM) | IC50 (K562): 1.4 µg/mL (≈ 2.7 µM) | IC50 (HCT-116): 1.6 µg/mL (≈ 3.08 µM) | IC50 (SK-BR-3): 1.4 µg/mL (≈ 2.7 µM) | IC50 (PC-3): 2.8 µg/mL (≈ 5.4 µM) | IC50 (LX-1): 1.1 µg/mL (≈ 2.12 µM)

C=CC(=C)CC[C@]1(C)[C@H]2C[C@H](OC(=O)C(C)CC)C=C3[C@H](OC(C)=O)O[C@H](OC(C)=O)[C@@]32[C@H](OC(C)=O)C[C@@H]1C (relative stereo) [CASEARLUCIN D]
IC50 (A2780): 2.9 µg/mL (≈ 5.17 µM) | IC50 [1]: 4.6 µg/mL (≈ 8.2 µM) | IC50 (ABAE): 4.1 µg/mL (≈ 7.31 µM) | IC50 (HT-29): 6.2 µg/mL (≈ 11.1 µM) | IC50 [2]: 9.4 µg/mL (≈ 16.8 µM) | IC50 (K562): 3.9 µg/mL (≈ 6.96 µM) | IC50 (HCT-116): 4.7 µg/mL (≈ 8.38 µM) | IC50 (SK-BR-3): 10 µg/mL (≈ 17.8 µM) | IC50 (PC-3): 13 µg/mL (≈ 23.2 µM) | IC50 (LX-1): 3.9 µg/mL (≈ 6.96 µM)

C=C/C(C)=C/C[C@]1(C)[C@H]2C[C@H](OC(=O)C(C)CC)C=C3[C@H](OC(C)=O)O[C@H](OC(C)=O)[C@@]32[C@H](OC(C)=O)C[C@@H]1C (relative stereo) [CASEARLUCIN C]
IC50 (A2780): 2.8 µg/mL (≈ 4.99 µM) | IC50 [1]: 9.6 µg/mL (≈ 17.1 µM) | IC50 (ABAE): 3.6 µg/mL (≈ 6.42 µM) | IC50 (HT-29): 12 µg/mL (≈ 21.4 µM) | IC50 [2]: 7.7 µg/mL (≈ 13.7 µM) | IC50 (K562): 3.8 µg/mL (≈ 6.78 µM) | IC50 (HCT-116): 4.5 µg/mL (≈ 8.03 µM) | IC50 (SK-BR-3): 14 µg/mL (≈ 25 µM) | IC50 (PC-3): 15 µg/mL (≈ 26.8 µM) | IC50 (LX-1): 5 µg/mL (≈ 8.92 µM)

C=CC(=C)CC[C@]1(C)[C@H]2C[C@@H](OC(=O)C(C)CC)C=C3[C@H](OC(C)=O)O[C@H](OC(C)=O)[C@@]32[C@H](OC)C[C@@H]1C (relative stereo) [CASEARLUCIN E]
IC50 (A2780): 2.9 µg/mL (≈ 5.44 µM) | IC50 [1]: 4.1 µg/mL (≈ 7.7 µM) | IC50 (ABAE): 0.9 µg/mL (≈ 1.69 µM) | IC50 (HT-29): 2.8 µg/mL (≈ 5.26 µM) | IC50 [2]: 3 µg/mL (≈ 5.63 µM) | IC50 (K562): 1.7 µg/mL (≈ 3.19 µM) | IC50 (HCT-116): 1.8 µg/mL (≈ 3.38 µM) | IC50 (SK-BR-3): 3.9 µg/mL (≈ 7.32 µM) | IC50 (PC-3): 4.3 µg/mL (≈ 8.07 µM) | IC50 (LX-1): 1.8 µg/mL (≈ 3.38 µM)

C=C/C(C)=C/C[C@]1(C)[C@H]2C[C@H](OC(=O)C(C)CC)C=C3[C@H](OC(C)=O)O[C@H](OC(C)=O)[C@@]32[C@H](O)C[C@@H]1C (relative stereo) [CASEARLUCIN A]
IC50 (A2780): 3 µg/mL (≈ 5.78 µM) | IC50 [1]: 2.8 µg/mL (≈ 5.4 µM) | IC50 (ABAE): 0.8 µg/mL (≈ 1.54 µM) | IC50 (HT-29): 0.8 µg/mL (≈ 1.54 µM) | IC50 [2]: 1 µg/mL (≈ 1.93 µM) | IC50 (K562): 1.1 µg/mL (≈ 2.12 µM) | IC50 (HCT-116): 1.3 µg/mL (≈ 2.51 µM) | IC50 (SK-BR-3): 1.2 µg/mL (≈ 2.31 µM) | IC50 (PC-3): 2.5 µg/mL (≈ 4.82 µM) | IC50 (LX-1): 1 µg/mL (≈ 1.93 µM)

C=CC(=C)CC[C@]1(C)[C@H]2C[C@H](OC(=O)C(C)CC)C=C3[C@H](OC(C)=O)O[C@H](OC(C)=O)[C@@]32[C@H](OC)C[C@@H]1C (relative stereo)
IC50 (A2780): 2.9 µg/mL (≈ 5.44 µM) | IC50 [1]: 2.9 µg/mL (≈ 5.44 µM) | IC50 (ABAE): 0.8 µg/mL (≈ 1.5 µM) | IC50 (HT-29): 1.3 µg/mL (≈ 2.44 µM) | IC50 [2]: 1.4 µg/mL (≈ 2.63 µM) | IC50 (K562): 1.4 µg/mL (≈ 2.63 µM) | IC50 (HCT-116): 1 µg/mL (≈ 1.88 µM) | IC50 (SK-BR-3): 3.5 µg/mL (≈ 6.57 µM) | IC50 (PC-3): 3 µg/mL (≈ 5.63 µM) | IC50 (LX-1): 1.2 µg/mL (≈ 2.25 µM)
